In PMC3753068 (Small (Weinheim an der Bergstrasse, Germany), 2012):
Where a SMILES comes first, the peptide text is derived from it. The star is where a group is joined. X1 = O=C(CCCCCCCCCCS)NCCCOCCOCCOCCCN*

Test: Stability of peptides in human serum
Format: in vitro ADME

- half-life: 17.5 min
Compound: CC(=O)N[C@@H](CC(=O)O)C(=O)N[C@@H](CC(C)C)C(=O)N[C@@H](Cc1c[nH]c2ccccc12)C(=O)N[C@@H](CCCCN)C(=O)N[C@@H](CC(C)C)C(=O)NCCCOCCOCCOCCCNC(=O)CCCCCCCCCCS [Compound 1] (Ac-DLWKL-X1; C-terminus assumed)
